Measurements published in ChEMBL document CHEMBL1201862, “PubChem BioAssay data set” (2004).
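A five-concentration, 48-hour dose response in 96-well plates underlies each endpoint, interpolated linearly between surrounding concentrations. GI50: concentration for 50% inhibition of growth.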 Calls of active or inactive are those of the source. Cut-off read from the data, not from the text of the source: active = GI50 up to about 1.1 µM and inactive = higher.

How the values were obtained:
Assay in all cases: inhibition of tumour cell growth, NCI panel, 48 h
HOP-62 = system: HOP-62
MOLT-4 = system: MOLT-4
UACC-62 = system: UACC-62
SK-MEL-28 = system: SK-MEL-28
Malme-3M = system: Malme-3M
SNB-78 = system: SNB-78
UO-31 = system: UO-31
OVCAR-3 = system: OVCAR-3
SN12C = system: SN12C
M19-MEL = system: M19-MEL
SW-620 = system: SW-620
UACC-257 = system: UACC-257
HCT-116 = system: HCT-116
HT-29 = system: HT-29
A498 = system: A498
RXF 393 = system: RXF 393
MDA-MB-231 = system: MDA-MB-231
NCI/ADR-RES = system: NCI/ADR-RES
MCF7 = system: MCF7
MDA-N = system: MDA-N

## O=C1NC(Cc2ccccc2)C(=O)N2CCCC12 (stereo not given)
HOP-62
  GI50: > 100 µM (inactive)
MOLT-4
  GI50: > 100 µM (inactive)
UACC-62
  GI50: > 100 µM (inactive)
SK-MEL-28
  GI50: > 100 µM (inactive)
Malme-3M
  GI50: > 100 µM (inactive)
SNB-78
  GI50: > 100 µM (inactive)
UO-31
  GI50: > 100 µM (inactive)
OVCAR-3
  GI50: > 100 µM (inactive)
SN12C
  GI50: > 100 µM (inactive)
M19-MEL
  GI50: > 100 µM (inactive)
SW-620
  GI50: > 100 µM (inactive)
UACC-257
  GI50: > 100 µM (inactive)
HCT-116
  GI50: > 100 µM (inactive)
HT-29
  GI50: > 100 µM (inactive)
A498
  GI50: > 100 µM (inactive)
RXF 393
  GI50: > 100 µM (inactive)

## COc1cccc(NC(=O)CC(=O)N2N=C(N(CCC#N)c3ccc(Cl)cc3)CC2c2ccccc2)c1 (stereo not given)
HOP-62
  GI50: > 100 µM (inactive)
MOLT-4
  GI50: > 100 µM (inactive)
UACC-62
  GI50: > 100 µM (inactive)
SK-MEL-28
  GI50: > 100 µM (inactive)
Malme-3M
  GI50: > 100 µM (inactive)
SNB-78
  GI50: > 100 µM (inactive)
UO-31
  GI50: > 100 µM (inactive)
OVCAR-3
  GI50: > 100 µM (inactive)
SN12C
  GI50: > 100 µM (inactive)
M19-MEL
  GI50: > 100 µM (inactive)
SW-620
  GI50: > 100 µM (inactive)
UACC-257
  GI50: > 100 µM (inactive)
HCT-116
  GI50: > 100 µM (inactive)
HT-29
  GI50: > 100 µM (inactive)
A498
  GI50: > 100 µM (inactive)
RXF 393
  GI50: > 100 µM (inactive)

## CCCNCc1nc2ccc(Br)cc2c(=O)n1CCC
HOP-62
  GI50: 22 µM (inactive)
MOLT-4
  GI50: 7.8 µM (inactive)
UACC-62
  GI50: 6.93 µM (inactive)
SK-MEL-28
  GI50: 15.3 µM (inactive)
Malme-3M
  GI50: 13.5 µM (inactive)
SNB-78
  GI50: 17.5 µM (inactive)
UO-31
  GI50: 16.2 µM (inactive)
OVCAR-3
  GI50: 18.4 µM (inactive)
SN12C
  GI50: 13.6 µM (inactive)
M19-MEL
  GI50: 13.2 µM (inactive)
SW-620
  GI50: 13.7 µM (inactive)
UACC-257
  GI50: 13.3 µM (inactive)
HCT-116
  GI50: 9.98 µM (inactive)
HT-29
  GI50: 15.1 µM (inactive)
A498
  GI50: 18.1 µM (inactive)
RXF 393
  GI50: 15.4 µM (inactive)

## N#CC1(C#N)C(c2ccccc2)C=CC12OCCCO2 (stereo not given)
HOP-62
  GI50: > 100 µM (inactive)
MOLT-4
  GI50: 26.7 µM (inactive)
UACC-62
  GI50: 33.3 µM (inactive)
SK-MEL-28
  GI50: 27 µM (inactive)
Malme-3M
  GI50: 42.2 µM (inactive)
SNB-78
  GI50: 31.6 µM (inactive)
UO-31
  GI50: 97.3 µM (inactive)
OVCAR-3
  GI50: 33 µM (inactive)
SN12C
  GI50: 32.6 µM (inactive)
M19-MEL
  GI50: 40.3 µM (inactive)
SW-620
  GI50: 31.1 µM (inactive)
UACC-257
  GI50: 27.4 µM (inactive)
HCT-116
  GI50: 24.9 µM (inactive)
HT-29
  GI50: 47.5 µM (inactive)
A498
  GI50: 48.6 µM (inactive)
RXF 393
  GI50: 17 µM (inactive)

## CC(=O)/C(C)=N/NC(=O)c1ccccc1O
HOP-62
  GI50: > 10 µM (inactive)
MOLT-4
  GI50: 31.7 µM (inactive)
MDA-MB-231
  GI50: > 100 µM (inactive)
UACC-62
  GI50: 39.7 µM (inactive)
NCI/ADR-RES
  GI50: > 100 µM (inactive)
SK-MEL-28
  GI50: > 10 µM (inactive)
Malme-3M
  GI50: > 10 µM (inactive)
SNB-78
  GI50: > 10 µM (inactive)
UO-31
  GI50: > 10 µM (inactive)
OVCAR-3
  GI50: 69.5 µM (inactive)
SN12C
  GI50: > 10 µM (inactive)
MCF7
  GI50: > 100 µM (inactive)
M19-MEL
  GI50: > 10 µM (inactive)
SW-620
  GI50: > 10 µM (inactive)
UACC-257
  GI50: > 10 µM (inactive)
HCT-116
  GI50: > 10 µM (inactive)
HT-29
  GI50: > 10 µM (inactive)
MDA-N
  GI50: > 100 µM (inactive)
A498
  GI50: 47.9 µM (inactive)
RXF 393
  GI50: > 10 µM (inactive)

## C[n+]1c2ccccc2c(CNc2ccc(S(=O)(=O)N=C(N)N)cc2)c2ccccc21
HOP-62
  GI50: 4.09 µM (inactive)
MOLT-4
  GI50: 0.311 µM (active)
UACC-62
  GI50: 10.4 µM (inactive)
SK-MEL-28
  GI50: 12.4 µM (inactive)
Malme-3M
  GI50: 13.6 µM (inactive)
SNB-78
  GI50: 19.9 µM (inactive)
UO-31
  GI50: 14.4 µM (inactive)
OVCAR-3
  GI50: 19.8 µM (inactive)
SN12C
  GI50: 3.16 µM (inactive)
M19-MEL
  GI50: 14.5 µM (inactive)
SW-620
  GI50: 6.95 µM (inactive)
UACC-257
  GI50: 16 µM (inactive)
HCT-116
  GI50: 5.78 µM (inactive)
HT-29
  GI50: 20.2 µM (inactive)
A498
  GI50: 17.4 µM (inactive)
RXF 393
  GI50: 15.1 µM (inactive)
